Test results from patent US20240226130A1, “4'-THIONUCLEOSIDE ANALOGUES AND THEIR PHARMACEUTICAL USE” (Gilead Sciences, Inc., priority 2022, published 2024).

What was measured:
DNA polymerase γ = DNA polymerase γ (Homo sapiens (Human), UniProt P54098); experiment: DNA polymerase γ single nucleotide incorporation (SNI) rate assay; format: biochemical; conditions: incorporation rate as a percentage relative to the corresponding natural dNTP; 50 μM analog
Protocol: Example 12: DNA Polymerase γ Single Nucleotide Incorporation (SNI) Rate Assay
The DNA polymerase (pol) γ SNI assay utilized an annealed ^32P labeled primer-template complex of D19 [5′-G TCC CTG TTC GGG CGC CAC-3′] and D36 A/G/T/C [3′-CGACCGTCCAGGGACAAGCCCGCG (TGT/CGT/ACG/GCG) ATC TCT-5′] where the templating base was chosen to base pair to the natural dNTP and analogs assayed. 20 nM DNA pol γ large subunit and 100 nM pol γ accessory subunit were preincubated on ice for 5 minutes and added to reaction mix containing 50 mM Tris-Cl pH 8.0, 5 mM DTT, 0.2 mg/mL bSA, 200 nM D19/D36 mer and 10 mM MgCl2. […] The substrate and the incorporation products, D19 and D20-28, were quantified using a Typhoon Trio Imager and Image Quant TL Software. The nucleotide incorporation rate was calculated in Prism by fitting the product formation using the single exponential equation: [D20]=A*(1−e−k*t), where [D20] represents the amount (in nM) of the elongated product formed, t represents the reaction time, k represents the observed rate, and A represents the amplitude of the exponential. […]

DNA polymerase α = DNA polymerase α (Homo sapiens (Human), UniProt P09884); experiment: DNA polymerase α single nucleotide incorporation (SNI) rate assay; format: biochemical; conditions: incorporation rate as a percentage relative to the corresponding natural dNTP; 50 μM analog
Protocol: Example 13: DNA Polymerase a Single Nucleotide Incorporation (SNI) Rate Assay
The DNA polymerase (pol) a SNI assay utilized an annealed ^32P labeled primer-template complex of D19 [5′-G TCC CTG TTC GGG CGC CAC-3′] and D36 A/G/T/C [3′-CGACCGTCCAGGGACAAGCCCGCG (TGT/CGT/ACG/GCG) ATC TCT-5′] where the templating base was chosen to base pair to the natural dNTP and analogs assayed. Reactions containing 50 mM Tris-Cl pH 8.0, 5 mM DTT, 0.2 mg/mL bSA, 200 nM D19/D36 mer and 10 mM MgCl2 and 5 nM DNA pol a were heated to 37° C. and initiated by addition of 50 μM (final) natural dNTP or analogs. At 0, 5, 10, 20, 40, and 60 min, 10 μL of the reaction mixture was removed and quenched with 10 μL of a gel loading buffer containing 100 mM EDTA, 80% formamide and bromophenol blue, and heated at 65° C. for 5 minutes. The samples were run on a 20% polyacrylamide gel (8 M urea) and the gel was exposed to a phosphorimager screen. The substrate and the incorporation products, D19 and D20-28, were quantified using a Typhoon Trio Imager and Image Quant TL Software. The nucleotide incorporation rate was calculated in Prism by fitting the product formation using the single exponential equation: [D20]=A*(1−e−k*t), where [D20] represents the amount (in nM) of the elongated product formed, t represents the reaction time, k represents the observed rate, and A represents the amplitude of the exponential. […]

[1] = Rhesus pharmacokinetic study, intravenous compound 7 (plasma and PBMC); conditions: for Intracellular concentration in PBMC: LOQ 2.5 μM compound 7, 0.63 μM triphosphate
Protocol: Male Indian Origin Rhesus Monkeys were used for the pharmacokinetic studies. Studies were conducted under a protocol approved by IACUC. […] The intravenous dose was administered as an approximately 30-minute infusion, and after dose administration the dose apparatus was flushed with approximately 1 mL saline before removal from the animal. Food was returned 4 hours after dosing. […] The K2EDTA tubes were kept chilled at approximately 5° C. until centrifugation (4° C., 5 minutes, 2000×g) to collect plasma. Centrifugation began within 1 hour of collection. Plasma samples were harvested, placed in micronic tubes, and maintained on dry ice prior to storage at −70° C. until analysis by LC-MS/MS. […] The sodium citrate tubes were then gently inverted 3-4 times and stored upright at ambient temperature until centrifugation to collect PBMCs. Centrifugation began as soon as possible following collection, within 6 hours after collection. The PBMCs were separated by centrifugation (30 minutes at 1500×g-1800×g, 18-20° C.), washed once with ice cold 0.9% NaCl and treated with red blood cell lysis buffer (3.5 g ammonium chloride and 0.036 g ammonium carbonate in 500 mL ultrapure water, prepared before first blood collection) for 10 minutes at ambient temperature. Subsequently the cells were washed twice with ice cold 0.9% NaCl, the cell pellet resuspended in ice cold RIPA buffer (fortified with Pierce protease ad phosphatase inhibitor tablet), snap frozen in liquid nitrogen, and maintained at −70° C. until analysis by LC-MS/MS.

[2] = Rhesus pharmacokinetic study, oral compound 7 (plasma and PBMC); conditions: for Intracellular concentration in PBMC: LOQ 0.16 μM compound 7, 0.04 μM triphosphate
Protocol: The oral dose was administered via oral gavage, and after dose administration the dose apparatus was flushed with approximately 10 mL water before removal from the animal. Food was returned 4 hours after dosing. […] The K2EDTA tubes were kept chilled at approximately 5° C. until centrifugation (4° C., 5 minutes, 2000×g) to collect plasma. Centrifugation began within 1 hour of collection. Plasma samples were harvested, placed in micronic tubes, and maintained on dry ice prior to storage at −70° C. until analysis by LC-MS/MS. […] The sodium citrate tubes were then gently inverted 3-4 times and stored upright at ambient temperature until centrifugation to collect PBMCs. Centrifugation began as soon as possible following collection, within 6 hours after collection. The PBMCs were separated by centrifugation (30 minutes at 1500×g-1800×g, 18-20° C.), washed once with ice cold 0.9% NaCl and treated with red blood cell lysis buffer (3.5 g ammonium chloride and 0.036 g ammonium carbonate in 500 mL ultrapure water, prepared before first blood collection) for 10 minutes at ambient temperature. Subsequently, the cells were washed twice with ice cold 0.9% NaCl and the cell pellet maintained at −70° C. until analysis by LC-MS/MS.

Sequence of DNA polymerase γ (P54098 whole entry, looked up): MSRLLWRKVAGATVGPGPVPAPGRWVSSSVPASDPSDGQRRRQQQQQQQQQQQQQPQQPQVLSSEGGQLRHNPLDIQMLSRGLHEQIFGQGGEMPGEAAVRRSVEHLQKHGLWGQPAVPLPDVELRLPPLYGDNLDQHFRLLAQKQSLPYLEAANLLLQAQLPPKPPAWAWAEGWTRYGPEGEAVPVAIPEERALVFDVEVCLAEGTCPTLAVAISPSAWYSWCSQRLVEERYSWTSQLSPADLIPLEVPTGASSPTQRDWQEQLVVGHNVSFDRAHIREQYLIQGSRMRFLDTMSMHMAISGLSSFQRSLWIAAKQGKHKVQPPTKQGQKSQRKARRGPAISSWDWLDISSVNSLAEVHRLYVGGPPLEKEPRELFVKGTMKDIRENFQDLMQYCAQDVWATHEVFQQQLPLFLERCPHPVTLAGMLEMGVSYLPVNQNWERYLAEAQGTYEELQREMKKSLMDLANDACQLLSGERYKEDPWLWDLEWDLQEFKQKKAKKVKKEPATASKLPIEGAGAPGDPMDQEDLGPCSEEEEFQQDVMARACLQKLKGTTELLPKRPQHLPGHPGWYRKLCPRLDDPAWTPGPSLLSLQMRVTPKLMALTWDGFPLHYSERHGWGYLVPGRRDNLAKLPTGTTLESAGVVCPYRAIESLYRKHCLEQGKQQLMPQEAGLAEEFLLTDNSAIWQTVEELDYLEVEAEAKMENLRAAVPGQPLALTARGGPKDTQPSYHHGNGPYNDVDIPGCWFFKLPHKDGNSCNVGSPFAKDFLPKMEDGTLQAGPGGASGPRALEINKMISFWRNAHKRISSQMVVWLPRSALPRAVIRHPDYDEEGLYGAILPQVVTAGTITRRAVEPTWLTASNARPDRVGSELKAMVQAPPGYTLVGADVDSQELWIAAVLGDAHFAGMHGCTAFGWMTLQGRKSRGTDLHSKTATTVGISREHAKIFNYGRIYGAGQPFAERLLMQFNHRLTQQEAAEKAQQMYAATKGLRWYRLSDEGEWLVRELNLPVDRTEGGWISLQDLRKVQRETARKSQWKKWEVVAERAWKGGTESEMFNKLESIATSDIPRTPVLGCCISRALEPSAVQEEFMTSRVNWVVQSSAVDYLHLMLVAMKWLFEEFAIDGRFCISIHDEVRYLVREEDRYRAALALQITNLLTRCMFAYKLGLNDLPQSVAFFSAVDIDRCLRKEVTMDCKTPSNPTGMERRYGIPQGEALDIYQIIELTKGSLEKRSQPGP
Sequence of DNA polymerase γ (Q9UHN1 whole entry partner, looked up): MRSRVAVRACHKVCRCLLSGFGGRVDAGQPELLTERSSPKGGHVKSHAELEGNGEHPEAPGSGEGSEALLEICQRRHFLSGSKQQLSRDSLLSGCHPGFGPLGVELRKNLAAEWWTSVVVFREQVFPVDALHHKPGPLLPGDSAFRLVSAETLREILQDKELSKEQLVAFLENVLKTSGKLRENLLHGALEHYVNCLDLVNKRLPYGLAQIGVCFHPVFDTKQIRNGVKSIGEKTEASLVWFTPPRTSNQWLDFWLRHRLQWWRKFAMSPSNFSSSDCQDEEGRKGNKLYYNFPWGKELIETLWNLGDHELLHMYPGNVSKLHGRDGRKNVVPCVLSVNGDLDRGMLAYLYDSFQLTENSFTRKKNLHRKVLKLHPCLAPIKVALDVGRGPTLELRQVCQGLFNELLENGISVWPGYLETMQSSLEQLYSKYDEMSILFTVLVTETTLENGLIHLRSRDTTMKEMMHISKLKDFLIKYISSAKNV
Sequence of DNA polymerase α (P09884 whole entry): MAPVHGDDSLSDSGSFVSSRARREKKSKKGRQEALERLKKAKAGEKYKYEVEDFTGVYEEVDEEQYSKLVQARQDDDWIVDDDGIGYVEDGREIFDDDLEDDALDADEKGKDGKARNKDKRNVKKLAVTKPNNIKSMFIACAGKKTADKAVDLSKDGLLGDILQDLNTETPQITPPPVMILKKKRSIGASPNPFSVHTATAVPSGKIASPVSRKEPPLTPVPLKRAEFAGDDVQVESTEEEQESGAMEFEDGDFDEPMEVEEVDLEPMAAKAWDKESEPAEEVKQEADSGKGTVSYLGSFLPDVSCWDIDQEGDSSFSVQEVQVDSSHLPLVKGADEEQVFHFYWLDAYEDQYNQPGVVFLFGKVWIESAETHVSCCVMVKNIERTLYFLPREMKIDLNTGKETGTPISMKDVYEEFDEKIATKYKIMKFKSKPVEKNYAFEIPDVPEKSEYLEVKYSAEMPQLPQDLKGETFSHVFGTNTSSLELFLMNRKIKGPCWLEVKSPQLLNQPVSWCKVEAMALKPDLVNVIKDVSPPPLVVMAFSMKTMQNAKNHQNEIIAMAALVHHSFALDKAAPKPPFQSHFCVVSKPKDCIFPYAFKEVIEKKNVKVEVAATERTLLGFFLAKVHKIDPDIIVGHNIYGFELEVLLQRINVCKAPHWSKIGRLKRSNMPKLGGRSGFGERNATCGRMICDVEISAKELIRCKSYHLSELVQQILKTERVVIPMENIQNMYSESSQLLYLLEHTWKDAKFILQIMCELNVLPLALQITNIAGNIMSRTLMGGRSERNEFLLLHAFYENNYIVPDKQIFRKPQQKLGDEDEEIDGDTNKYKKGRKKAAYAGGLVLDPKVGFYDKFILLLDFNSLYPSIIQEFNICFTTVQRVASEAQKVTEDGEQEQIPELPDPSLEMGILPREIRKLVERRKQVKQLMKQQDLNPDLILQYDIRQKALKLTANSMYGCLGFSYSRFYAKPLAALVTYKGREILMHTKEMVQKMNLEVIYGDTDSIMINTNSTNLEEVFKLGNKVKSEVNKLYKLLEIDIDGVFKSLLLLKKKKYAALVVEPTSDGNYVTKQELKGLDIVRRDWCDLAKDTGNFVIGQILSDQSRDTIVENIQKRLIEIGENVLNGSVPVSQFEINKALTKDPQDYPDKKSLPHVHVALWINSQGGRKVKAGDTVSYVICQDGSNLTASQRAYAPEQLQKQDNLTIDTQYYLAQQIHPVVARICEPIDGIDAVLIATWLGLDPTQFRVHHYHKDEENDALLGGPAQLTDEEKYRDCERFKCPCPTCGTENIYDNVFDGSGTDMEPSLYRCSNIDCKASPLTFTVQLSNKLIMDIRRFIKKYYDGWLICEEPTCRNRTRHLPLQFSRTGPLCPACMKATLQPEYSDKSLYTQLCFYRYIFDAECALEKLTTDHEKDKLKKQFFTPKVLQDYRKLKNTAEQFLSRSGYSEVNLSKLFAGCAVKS

## Hemitriethylamine ((2R,3S,5R)-5-(4-amino-5-fluoro-2-oxopyrimidin-1(2H)-yl)-2-ethynyl-3-hydroxytetrahydrothiophen-2-yl)methyl triphosphate [Compound 8]
DNA polymerase γ
  DNA Pol γ SNIR: 1.3
DNA polymerase α
  DNA Pol α SNIR: 2.6
[1]; 12 hr after intravenous 1 mg/kg compound 7
  Intracellular concentration in PBMC: 2.19 ± 0.31 µM
[1]; 24 hr after intravenous 1 mg/kg compound 7
  Intracellular concentration in PBMC: 1.34 ± 0.14 µM
[1]; 48 hr after intravenous 1 mg/kg compound 7
  Intracellular concentration in PBMC: 0.42 ± 0.06 µM
[1]; 72 hr after intravenous 1 mg/kg compound 7
  Intracellular concentration in PBMC: BLQ
[1]; 144 hr after intravenous 1 mg/kg compound 7
  Intracellular concentration in PBMC: BLQ
[1]; 168 hr after intravenous 1 mg/kg compound 7
  Intracellular concentration in PBMC: BLQ
[1]; in PBMC, intravenous 1 mg/kg compound 7
  Calculated half life of triphosphate metabolite: Calculated half life of triphosphate metabolite: 19.8 ± 9.3 hours
[2]; 12 hr after oral 7.5 mg/kg compound 7
  Intracellular concentration in PBMC: 1.43 ± 0.45 µM
[2]; 24 hr after oral 7.5 mg/kg compound 7
  Intracellular concentration in PBMC: 1.78 ± 0.57 µM
[2]; 48 hr after oral 7.5 mg/kg compound 7
  Intracellular concentration in PBMC: 1.15 ± 0.76 µM
[2]; 72 hr after oral 7.5 mg/kg compound 7
  Intracellular concentration in PBMC: 0.47 ± 0.22 µM
[2]; 120 hr after oral 7.5 mg/kg compound 7
  Intracellular concentration in PBMC: 0.17 ± 0.01 µM
[2]; 168 hr after oral 7.5 mg/kg compound 7
  Intracellular concentration in PBMC: 0.09 ± 0.02 µM
[2]; in PBMC, oral 7.5 mg/kg compound 7
  Calculated half-life of triphosphate metabolite: Calculated half-life of triphosphate metabolite: 43.1 ± 19.3 hours
